Data on 7 molecules can be found in PMC3953198 (Journal of medicinal chemistry, 2013).

One data set deals with EphA2 receptor (Mus musculus, UniProt Q03145). In kind it is binding. Particulars: for activity in the binding assay (in words): EphA2-ephrin-A1 ELISA.
In another data set the test system is PC3 cells. As to the kind of experiment: LDH assay. Particulars: 2 h, at the tested concentrations. In kind it is cell-based, human.

Chain of EphA2 receptor (Q03145 26-538 limits assumed): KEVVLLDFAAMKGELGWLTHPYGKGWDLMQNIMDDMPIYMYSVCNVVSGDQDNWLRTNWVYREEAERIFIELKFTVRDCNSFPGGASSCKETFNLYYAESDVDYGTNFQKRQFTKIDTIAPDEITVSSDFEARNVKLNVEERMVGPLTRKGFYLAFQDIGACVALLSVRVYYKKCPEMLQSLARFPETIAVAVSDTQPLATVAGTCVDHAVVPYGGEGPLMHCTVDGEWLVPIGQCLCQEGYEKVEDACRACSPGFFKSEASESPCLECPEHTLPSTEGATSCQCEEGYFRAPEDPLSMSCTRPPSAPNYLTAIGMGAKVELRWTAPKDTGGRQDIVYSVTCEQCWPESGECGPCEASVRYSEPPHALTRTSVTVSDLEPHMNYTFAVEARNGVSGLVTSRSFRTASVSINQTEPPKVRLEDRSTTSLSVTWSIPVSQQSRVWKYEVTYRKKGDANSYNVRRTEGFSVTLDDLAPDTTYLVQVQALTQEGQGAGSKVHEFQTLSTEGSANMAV

In the case of `C[C@H](CCC(=O)NCC(=O)O)[C@H]1CC[C@H]2[C@@H]3CC[C@@H]4C[C@H](O)CC[C@]4(C)[C@H]3CC[C@]12C` [Compound 2, glycolithocholic acid], the reversibility of binding entry at EphA2 receptor (100 μM compound for 1 hour, with or without washing before 50 ng/mL ephrin-A1-Fc) is given as “reversible binder”. Also, the “nature of the antagonism” value on EphA2 receptor (from Schild plot) is on record as “competitive binding”.

In the case of `CC(=O)CNC(=O)CC[C@@H](C)[C@H]1CC[C@H]2[C@@H]3CC[C@@H]4C[C@H](O)CC[C@]4(C)[C@H]3CC[C@]12C` [Compound 3], at EphA2 receptor, the IC50 – broadly, the concentration at which inhibition is half-maximal – is above 316 µM and the “activity in the binding assay (in words)” value is “inactive”.

`C[C@H](CCC(=O)N[C@@H](CC(N)=O)C(=O)O)[C@H]1CC[C@H]2[C@@H]3CC[C@@H]4C[C@H](O)CC[C@]4(C)[C@H]3CC[C@]12C` [Compound 10] yielded an IC50 against EphA2 receptor above 316 µM.

Regarding `C[C@H](CCC(=O)N[C@H](CC(N)=O)C(=O)O)[C@H]1CC[C@H]2[C@@H]3CC[C@@H]4C[C@H](O)CC[C@]4(C)[C@H]3CC[C@]12C` [Compound 11], the half-inhibitory concentration (IC50) against EphA2 receptor was above 316 µM.

Consider `C[C@H](CCC(=O)N[C@@H](CC(=O)O)C(=O)O)[C@H]1CC[C@H]2[C@@H]3CC[C@@H]4C[C@H](O)CC[C@]4(C)[C@H]3CC[C@]12C` [Compound 12], for which, at EphA2 receptor, the concentration for half-maximal inhibition (IC50) is above 316 µM and the “activity in the binding assay (in words)” value is “inactive”.

For `C[C@H](CCC(=O)N[C@H](CC(=O)O)C(=O)O)[C@H]1CC[C@H]2[C@@H]3CC[C@@H]4C[C@H](O)CC[C@]4(C)[C@H]3CC[C@]12C` [Compound 13], on EphA2 receptor, the IC50 is above 316 µM and the “activity in the binding assay (in words)” value was “inactive”.

With `C[C@H](CCC(=O)N[C@@H](Cc1c[nH]c2ccccc12)C(=O)O)[C@H]1CC[C@H]2[C@@H]3CC[C@@H]4C[C@H](O)CC[C@]4(C)[C@H]3CC[C@]12C` [Compound 20], the “cytotoxic effect (LDH assay)” value with PC3 cells is on record as “nor had cytotoxic effect”.
